From the supplement of paper PMC11451515

Tests used:
Conditions in all cases: 48 h
P12-Ichikawa [1] = assay: cell viability relative to DMSO control; higher = less cytotoxic
How it was run: (§1)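 NOMO1, SEM and P12-Ichikawa leukemia cells spent at least four passages adapting to each medium before use. They were seeded at 500 cells/well (NOMO1, SEM) or 1000 cells/well (P12-Ichikawa) in 5 μl in 1536-well plates and pin-dosed with library compounds in DMSO at 11 threefold steps from 47 μM down to 0.79 nM. After 48 h at 37°C, CellTiter-Glo One luminescence was read. Viability is reported as a percentage of the DMSO wells on each plate, with cell-free wells as background.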

NOMO1 [2] = assay: as above
How it was run: as §1

SEM cells [3] = assay: as above
How it was run: as §1

P12-Ichikawa [4] = assay: AUC of viability dose-response curve (% viability x log10 dose units); higher = less sensitive
How it was run: (§2)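 Viability of medium-adapted leukemia cells was measured by CellTiter-Glo One luminescence after 48 h at 37°C with library compounds in DMSO. Doses were 11 threefold steps from 47 μM to 0.79 nM, in 1536-well plates at 500 or 1000 cells/well. Signals were normalised per plate to DMSO and cell-free wells and fitted with a four-parameter log-logistic model on log10 dose. Area under the curve was integrated by trapezoidal rule, with curves exceeding full viability scaled and failed quality-control curves removed.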

NOMO1 [5] = assay: as above
How it was run: as §2

SEM cells [6] = assay: as above
How it was run: as §2

CC(C)c1ccccc1Cc1cc(C(=O)Nc2ccc([S+](=O)([O-])c3ccccc3C(C)(C)C)cc2)c(O)c(O)c1O
cell viability [%]
Conditions	NOMO1 [2]	P12-Ichikawa [1]	SEM cells [3]
HPLM + 10% dialyzed FBS, 0.000781 µM	–	112	104
HPLM + 10% dialyzed FBS, 0.00234 µM	–	112	127
HPLM + 10% dialyzed FBS, 0.00702 µM	–	111	116
HPLM + 10% dialyzed FBS, 0.0211 µM	–	113	106
HPLM + 10% dialyzed FBS, 0.0632 µM	–	111	113
HPLM + 10% dialyzed FBS, 0.19 µM	–	110	101
HPLM + 10% dialyzed FBS, 0.569 µM	–	106	109
HPLM + 10% dialyzed FBS, 1.71 µM	–	102	115
HPLM + 10% dialyzed FBS, 5.12 µM	–	101	68.6
HPLM + 10% dialyzed FBS, 15.4 µM	–	97.2	94.2
HPLM + 10% dialyzed FBS, 46.1 µM	–	91.5	94.6
RPMI 5 mM glucose + 10% FBS, 0.000781 µM	102	112	–
RPMI 5 mM glucose + 10% FBS, 0.00234 µM	116	116	–
RPMI 5 mM glucose + 10% FBS, 0.00702 µM	101	116	–
RPMI 5 mM glucose + 10% FBS, 0.0211 µM	102	114	–
RPMI 5 mM glucose + 10% FBS, 0.0632 µM	114	118	–
RPMI 5 mM glucose + 10% FBS, 0.19 µM	117	115	–
RPMI 5 mM glucose + 10% FBS, 0.569 µM	102	107	–
RPMI 5 mM glucose + 10% FBS, 1.71 µM	109	107	–
RPMI 5 mM glucose + 10% FBS, 5.12 µM	105	108	–
RPMI 5 mM glucose + 10% FBS, 15.4 µM	97.4	103	–
RPMI 5 mM glucose + 10% FBS, 46.1 µM	87.7	87.7	–
RPMI 5 mM glucose + 10% dialyzed FBS, 0.000781 µM	103	111	129
RPMI 5 mM glucose + 10% dialyzed FBS, 0.00234 µM	117	112	118
RPMI 5 mM glucose + 10% dialyzed FBS, 0.00702 µM	111	117	120
RPMI 5 mM glucose + 10% dialyzed FBS, 0.0211 µM	115	108	105
RPMI 5 mM glucose + 10% dialyzed FBS, 0.0632 µM	108	107	120
RPMI 5 mM glucose + 10% dialyzed FBS, 0.19 µM	118	114	112
RPMI 5 mM glucose + 10% dialyzed FBS, 0.569 µM	104	108	138
RPMI 5 mM glucose + 10% dialyzed FBS, 1.71 µM	118	107	123
RPMI 5 mM glucose + 10% dialyzed FBS, 5.12 µM	96.8	97.1	32.7
RPMI 5 mM glucose + 10% dialyzed FBS, 15.4 µM	97	93.3	69.8
RPMI 5 mM glucose + 10% dialyzed FBS, 46.1 µM	104	92.9	92.1

AUC of viability dose-response curve
Conditions	NOMO1 [5]	P12-Ichikawa [4]	SEM cells [6]
HPLM + 10% dialyzed FBS	408	451	449
RPMI 5 mM glucose + 10% FBS	467	460	426
RPMI 5 mM glucose + 10% dialyzed FBS	464	457	422
